Measured values: patent US20120100184A1, “SYNTHESIS OF 1-AMINO-1,3,3,5,5,-CYCLOHEXANE MESYLATE” (MERZ PHARMA GmbH & CO.KGaA, priority 2009, published 2012)

Key:
[1] = Amount of solvent necessary to dissolve 1 g neramexane mesylate (re-crystallization step (iii)); format: physicochemical
Description: 20 ml cumene are necessary to dissolve 1 g neramexane mesylate at 104° C. The mixture is cooled down to ambient temperature. The re-crystallized product is isolated via centrifugation. The obtained crystals are columnar.
22 ml methyl ethyl ketone are necessary to dissolve 1 g neramexane mesylate at 80° C. The mixture is cooled down to ambient temperature. The re-crystallized product is isolated via centrifugation. The obtained crystals have the form of plates in admixture with columnar crystals.
20 ml methyl isobutyl ketone are necessary to dissolve 1 g neramexane mesylate at 100° C. The mixture is cooled down to ambient temperature. The re-crystallized product is isolated via centrifugation. The obtained crystals are columnar.
23 ml n-butyl acetate are necessary to dissolve 1 g neramexane mesylate at 100° C. The mixture is cooled down to ambient temperature. The re-crystallized product is isolated via centrifugation. The obtained crystals are columnar.
10 ml anisole are necessary to dissolve 1 g neramexane mesylate at 87° C. The mixture is cooled down to ambient temperature. The re-crystallized product is isolated via centrifugation. The obtained crystals are columnar.
20 ml tetrahydrofurane are necessary to dissolve 1 g neramexane mesylate at 60° C. The mixture is cooled down to 57° C., where 5% by weight neramexane mesylate is added. Subsequently, the mixture is cooled down to ambient temperature. The re-crystallized product is isolated via centrifugation in a yield of 89%. The obtained crystals have the form of plates.
20 ml toluene are necessary to dissolve 1 g neramexane mesylate at 80° C. The mixture is cooled down to ambient temperature. The re-crystallized product is isolated via centrifugation.
100 ml of the mixture of acetone and water are necessary to dissolve 1 g neramexane mesylate at 40° C. The mixture is cooled down to ambient temperature. The re-crystallized product is isolated via centrifugation in a yield of 66%.
55 ml of dichloromethane are necessary to dissolve 1 g neramexane mesylate at 40° C. The mixture is cooled down to ambient temperature. The re-crystallized product is isolated via centrifugation in a yield of 87%.

[2] = mesylate of the prior art (Schweizer, Dissertation, page 200); cited from earlier work
[3] = Particle size distribution of neramexane mesylate crystals by laser diffraction; format: physicochemical; conditions: for d(10) / d(50) / d(90): Example 17, re-crystallized from anisole; for PSD d(10) / PSD d(50) / PSD d(90): re-crystallization step (iii) and seeding step (iv)
Description: The particle size is determined according to the known methods employing laser diffraction as already mentioned above, and determining the distribution modal sizes.
Particle size distribution ranges as determined by laser diffraction with mesylates obtained in anisole, cumene, methyl ethyl ketone, methyl isobutyl ketone and n-butyl acetate by performing at least re-crystallization step (iii) and seeding step (iv) are disclosed in the following table:
The crystals obtained in the process of Example 1 are analysed regarding the crystal size and size distribution. A commercial Malvern Mastersizer 2000 is employed. The samples are dispersed in rapeseed oil.

[4] = Example 3, anisole, 5% by weight seeds added
[5] = crystals of Example 1 (anisole, no seeds), Malvern Mastersizer 2000, dispersed in rapeseed oil
[6] = obtained in methyl ethyl ketone
[7] = obtained in methyl isobutyl ketone

solvent necessary to dissolve 1 g neramexane mesylate ([1]; anisole, 87° C.): 10 mL
solvent necessary to dissolve 1 g neramexane mesylate ([1]; cumene, 104° C.): 20 mL
solvent necessary to dissolve 1 g neramexane mesylate ([1]; dichloromethane, 40° C. (comparison)): 55 mL
solvent necessary to dissolve 1 g neramexane mesylate ([1]; methyl ethyl ketone, 80° C.): 22 mL
solvent necessary to dissolve 1 g neramexane mesylate ([1]; methyl isobutyl ketone, 100° C.): 20 mL
solvent necessary to dissolve 1 g neramexane mesylate ([1]; mixture of acetone/water 99/1 (volume/volume), 40° C. (comparison)): 100 mL
solvent necessary to dissolve 1 g neramexane mesylate ([1]; n-butyl acetate, 100° C.): 23 mL
solvent necessary to dissolve 1 g neramexane mesylate ([1]; tetrahydrofurane, 60° C.): 20 mL
solvent necessary to dissolve 1 g neramexane mesylate ([1]; toluene, 80° C. (comparison)): 20 mL
Particle size Distribution d(10) [3, 4]: 15 μm
Particle size Distribution d(50) [3, 4]: 74 μm
Particle size Distribution d(90) [3, 4]: 184 μm
amount of particulate matter (particles having a diameter of 10 μm and less) ([3]; Example 17, anisole, 1%, 2.5%, 5% and 7.5% seeds, respectively): below 5 % by weight
d(10) ([3]; 1% seeds): 69 μm
d(50) ([3]; 1% seeds): 181 μm
d(90) ([3]; 1% seeds): 377 μm
d(10) ([3]; 2.5% seeds): 36 μm
d(50) ([3]; 2.5% seeds): 119 μm
d(90) ([3]; 2.5% seeds): 330 μm
d(10) ([3]; 5% seeds): 24 μm
d(50) ([3]; 5% seeds): 86 μm
d(90) ([3]; 5% seeds): 215 μm
d(10) ([3]; 7.5% seeds): 21 μm
d(50) ([3]; 7.5% seeds): 76 μm
d(90) ([3]; 7.5% seeds): 243 μm
total amount of particles having a particle size of 10 μm and less ([3]; crystals of Example 1 (anisole, no seeds)): less than 1 % by weight
Particle size Distribution d(10) [3, 5]: 52.3 μm
Particle size Distribution d(50) [3, 5]: 129.4 μm
Particle size Distribution d(90) [3, 5]: 264.5 μm
PSD d(10) ([3]; obtained in anisole): 15 μm
PSD d(50) ([3]; obtained in anisole): 74 μm
PSD d(90) ([3]; obtained in anisole): 184 μm
PSD d(10) ([3]; obtained in cumene): 12 μm
PSD d(50) ([3]; obtained in cumene): 62 μm
PSD d(90) ([3]; obtained in cumene): 152 μm
PSD d(10) [3, 6]: 5 μm
PSD d(50) [3, 6]: 79 μm
PSD d(90) [3, 6]: 210 μm
PSD d(10) [3, 7]: 11 μm
PSD d(50) [3, 7]: 57 μm
PSD d(90) [3, 7]: 137 μm
PSD d(10) ([3]; obtained in n-butyl acetate): 12 μm
PSD d(50) ([3]; obtained in n-butyl acetate): 58 μm
PSD d(90) ([3]; obtained in n-butyl acetate): 136 μm
SMILES: CC1(C)CC(C)(C)CC(C)(N)C1.CS(=O)(=O)O [neramexane mesylate, 1-amino-1,3,3,5,5-pentamethylcyclohexane mesylate]
particle population having a diameter of less than 10 μm [2]: approximately 20 % by weight
